Earlier results as cited in patent US9795689B2, “Crosslinked polymer nano-assemblies and uses thereof” (University of Massachusetts, priority 2012, dated 2017).

C=C(C)C(=O)OCCN(C(C)C)C(C)C [DPA, 2-(diisopropylamino)ethyl methacrylate]
pKa of the protonated form of the amine: around 6.2
